Reference: patent US20210347728A1, “4,5-DIHYDROXY-2-(4-METHYLBENZYL)ISOPHTHALONITRILE SOLVATES AND CRYSTALLINE FORMS THEREOF” (Orion Corporation, priority 2018, published 2021)

Test: Stability and conversion of crystalline forms with relative humidity
Assay type: physicochemical
Conditions: humidity range not specified

Cc1ccc(Cc2c(C#N)cc(O)c(O)c2C#N)cc1 [Form II monohydrate, 4,5-dihydroxy-2-(4-methylbenzyl)isophthalonitrile monohydrate]
stability of the crystalline form with humidity: stable within a reasonable humidity range
